For one data set, the system named is Sarcocystis spp. As to the kind of experiment: in vitro test system for activity against Sarcocystis spp. Conditions: for activity in inhibiting the growth of the protozoa: in words. It counts as cell-based.
In data set [1] the test system is equine protozoal myeloencephalitis (Sarcocystis infection). As to the kind of experiment: treatment of horses with nitazoxanide: symptoms of EPM. The format is in vivo, horse. How it is done: (§1) All dosages were administered in solid (tablet) form.
(§2) This horse was positive for Sarcocystis infection in CSF and serum. […] The horse injured both hocks on day 12 by kicking the stall, resulting in edema of both rear limbs. […] On day 17 he was back to eating normally. Symptoms of EPM were gone by day 10 and have not returned.
(§3) This horse was positive for Sarcocystis infection in serological testing for antibody, showing no symptoms of the disease.
(§4) This horse was positive for Sarcocystis in serological testing for antibody, showing no symptoms of the disease.

The nature of data set [2]: safety and tolerance of nitazoxanide in horses. Conditions: for tolerance of the drug: oral. It counts as in vivo, horse. How it is done: as §1, §2, §3, §4
The conditions of data set [3]: cited from earlier work.
The subject of the next data set is Moniezia expansa. Conditions: single oral dose; sheep; cited from earlier work.
For data set [4], the system named is Avitellina centripunctata. Conditions: single oral dose; sheep; cited from earlier work.
For a further data set, the system named is Stilesia globipunctata. Conditions: single oral dose; sheep; cited from earlier work.
The next data set relates to Thysanezia ovilla. Conditions: single oral dose; sheep; cited from earlier work.
Another data set deals with Dipylidium caninum. Conditions: single oral dose; dogs; cited from earlier work.
A further data set has as its system Taenia pisiformis. Conditions: single oral dose; dogs; cited from earlier work.
A further data set relates to Taenia taeniaeformis. Conditions: single oral dose; cats; cited from earlier work.
The next data set deals with Uncinaria stenocephala. Conditions: repeated doses; dogs; cited from earlier work.
For the next data set, the system named is Trichuris vulpis. Conditions: repeated doses; dogs; cited from earlier work.
For a further data set, the system named is Hymenolepis nana. Conditions: mice; cited from earlier work.
A further data set concerns Syphacia obvelata. Conditions: mice; cited from earlier work.
Data set [5] has as its system Gram positive bacteria such as Staphylococcus aureus. Conditions: cited from earlier work.
In data set [6] the test system is facultative and obligate anaerobic Gram positive and Gram negative bacteria. Conditions: cited from earlier work.
The test system of data set [7] is protozoan and helminthic pathogens. Conditions: cited from earlier work.

≈ marks a conversion by molar mass, not a printed value. Read-outs that look alike come from different tables or passages of the source.

Take `CC(=O)Oc1ccccc1C(=O)Nc1ncc([N+](=O)[O-])s1` [nitazoxanide, 2-(acetolyloxy)-N-(5-nitro 2-thiazoly) benzamide]: in the data set on Sarcocystis spp., the “50% inhibitory concentration (growth of the protozoa)” value is on record as “approximately 0.475 μg/ml”. Further, the “activity in inhibiting the growth of the protozoa” value in the data set with Sarcocystis spp. was “highly active”. In addition, in data set [1] (Horse #1, Sarcocystis positive in CSF and serum, oral tablet, 50 mg/kg days 1-6, 100 mg/kg days 9-16, 150 mg/kg days 18-25), the “day by which symptoms of EPM were gone” value was at most 10 days. Moreover, in data set [1] (Horse #1, monitoring continued for 23 days), the reoccurrence of symptoms entry was “no reoccurrence of symptoms”. Further, in data set [1] (five horses, oral tablets, 50-150 mg/kg), the “symptoms at the end of the trial and during the 30-day period after the trial” value was “absence of any symptoms”. In addition, the eating of feed result in data set [2] (Horse #1, days 15 and 16 (100 mg/kg days 9-16), back to eating normally on day 17) is “slow to finish eating feed”. Further, the “tolerance of the drug” value was “tolerated the drug well at all dose levels” in [2] (Horse #2, 75 mg/kg days 1-6, 100 mg/kg days 9-16, 150 mg/kg days 18-25); “tolerated the drug well at all dose levels” in [2] (Horse #3, 75 mg/kg days 1-6, 100 mg/kg days 9-16, 150 mg/kg days 18-27); “tolerated the drug well at all dose levels” in [2] (Horse #4, 75 mg/kg days 1-6, 100 mg/kg days 9-16, 150 mg/kg days 18-27); “tolerated the drug well at all dose levels” in [2] (Horse #5, 75 mg/kg days 1-6, 100 mg/kg days 9-16, 150 mg/kg days 18-27). Further, the signs of toxicity result in [2] (all five horses) was “no signs of toxicity”. The solubility result is given as “very poorly soluble” in [3] ("either" (so in the source)); “poorly soluble” in [3] (acetic acid); “fairly soluble” in data set [3] (acetone); “poorly soluble” in data set [3] (chloroform); “fairly soluble” in data set [3] (dioxane); “poorly soluble” in [3] (ethanol). The solubility result in data set [3] (methyl benzene) is “very poorly soluble”; in data set [3] (pyridine), “easily soluble”; in data set [3] (water) it was “very poorly soluble”. Moreover, the cestocidal effect entry (in the data set on Moniezia expansa; in data set [4]; with Stilesia globipunctata; with Thysanezia ovilla; in the data set with Dipylidium caninum; in the data set with Taenia pisiformis) was “cestocidal effect” throughout. For the same molecule, the cestocidal effect entry in the data set on Taenia taeniaeformis was “cestocidal effect”. Moreover, the “efficacy against gastrointestinal nematodes” value with Uncinaria stenocephala and in the data set with Trichuris vulpis was “also observed” throughout. Also, the single dose activity entry in the data set with Hymenolepis nana was “activity”. Besides, the “effect of repeated doses” value in the data set on Syphacia obvelata is “effect”. Besides, the antibacterial effect result in data set [5] and in data set [6] was “effective” throughout. The “activity against protozoan and helminthic pathogens” value in data set [7] was “activity against a number of protozoan and helminthic pathogens”.
On to `O=C(Nc1ncc([N+](=O)[O-])s1)c1ccccc1O` [tizoxanide], for which the “activity in inhibiting the growth of the protozoa” value in the data set on Sarcocystis spp. was “highly active”. Further, in the data set with Sarcocystis spp. (read-out: 50% inhibitory concentration (growth of the protozoa)), the IC50 is around 0.475 µg/mL (≈ 1.79 µM).

(Values after patent publication US5935591A, “Method for treatment of equine protozoal myeloencephalitis with thiazolides” (Romark Laboratories, L.C., priority 1998, dated 1999).)
